{
  "source": "paper PMC4965013",
  "about": "“Open Source Drug Discovery with the Malaria Box Compound Collection for Neglected Diseases and Beyond” (PLoS Pathogens, 2016)",
  "key": {"[1]": {"tested_on": "P. falciparum 3D7", "experiment": "[3H]-hypoxanthine growth inhibition, modified HCO3- or O2", "format": "cell-based", "details": "for IC50: Plasmodium falciparum"}, "[2]": {"tested_on": "P. falciparum 3D7 trophozoites", "experiment": "Metabolomic fingerprint profiling LC-MS", "format": "cell-based, Plasmodium falciparum"}, "[3]": {"tested_on": "P. falciparum", "experiment": "EC50 listed in S2 Table Metabolomics (used to set the concentration tested)", "format": "cell-based", "details": "Plasmodium falciparum, read-out: EC50_nM"}, "[4]": {"details": "metabolite level change after treatment"}},
  "note": "Where two headings read alike, the source gives them in different places.",
  "data": [
    {"compound": "CCC1(C)CC(CCNCc2ccccc2O)(c2ccc(C)cc2)CCO1", "note": "(centres unmarked) [MMV019406]", "values": [
      {"measurement": "fold change (IC50normal/ IC50hypoxia)", "setting": "[1]", "result": 2.3},
      {"measurement": "IC50", "setting": "[1]; 3D7, read-out: P. falciparum 3D7 IC50 1% O2", "result": 0.236, "unit": "µM"},
      {"measurement": "IC50", "setting": "[1]; 3D7, read-out: P. falciparum 3D7 IC50 5% O2", "result": 0.54, "unit": "µM"},
      {"measurement": "Acetyllysine", "setting": "[2]; S2 Table Metabolomics, metabolite Acetyllysine", "result": -2.519},
      {"measurement": "N-acetyl-L-ornithine", "setting": "[2]; S2 Table Metabolomics, metabolite N-acetyl-L-ornithine", "result": -1.511},
      {"measurement": "N-carbamoyl-L-aspartate", "setting": "[2]; S2 Table Metabolomics, metabolite N-carbamoyl-L-aspartate", "result": -2.298},
      {"measurement": "NADPH", "setting": "[2]; S2 Table Metabolomics, metabolite NADPH", "result": 0.4736},
      {"measurement": "dAMP", "setting": "[2]; S2 Table Metabolomics, metabolite dAMP", "result": 0.284},
      {"measurement": "dCMP", "setting": "[2]; S2 Table Metabolomics, metabolite dCMP", "result": -0.09039},
      {"measurement": "dTDP", "setting": "[2]; S2 Table Metabolomics, metabolite dTDP", "result": 0.1057},
      {"measurement": "dTMP", "setting": "[2]; S2 Table Metabolomics, metabolite dTMP", "result": 0.004037},
      {"measurement": "dTTP", "setting": "[2]; S2 Table Metabolomics, metabolite dTTP", "result": -0.4082},
      {"measurement": "dihydroorotate", "setting": "[2]; S2 Table Metabolomics, metabolite dihydroorotate", "result": -2.242},
      {"measurement": "orotate", "setting": "[2]; S2 Table Metabolomics, metabolite orotate", "result": -1.534},
      {"measurement": "DLH", "setting": "[2]; S2 Table Metabolomics, peptide DLH", "result": -2.275},
      {"measurement": "DLS/SDL/SID", "setting": "[2]; S2 Table Metabolomics, peptide DLS/SDL/SID", "result": -1.841},
      {"measurement": "PD", "setting": "[2]; S2 Table Metabolomics, peptide PD", "result": -2.354},
      {"measurement": "PEE", "setting": "[2]; S2 Table Metabolomics, peptide PEE", "result": -2.262},
      {"measurement": "PVNF", "setting": "[2]; S2 Table Metabolomics, peptide PVNF", "result": -2.251},
      {"measurement": "3-phosphoglycerate", "setting": "[2]; metabolite 3-phosphoglycerate, S2 Table Metabolomics", "result": -0.1564},
      {"measurement": "ADP-D-glucose", "setting": "[2]; metabolite ADP-D-glucose, S2 Table Metabolomics", "result": -0.3945},
      {"measurement": "ATP", "setting": "[2]; metabolite ATP, S2 Table Metabolomics", "result": -0.512},
      {"measurement": "CDP", "setting": "[2]; metabolite CDP, S2 Table Metabolomics, change in metabolite level after compound treatment", "result": 0.05599},
      {"measurement": "D-sedoheptulose-1/7-phosphate", "setting": "[2]; metabolite D-sedoheptulose-1/7-phosphate, S2 Table Metabolomics, change in metabolite level after compound treatment", "result": -0.4162},
      {"measurement": "FAD", "setting": "[2]; metabolite FAD, S2 Table Metabolomics", "result": -0.02006},
      {"measurement": "GMP", "setting": "[2]; metabolite GMP, S2 Table Metabolomics, change in metabolite level after compound treatment", "result": -0.3975},
      {"measurement": "NAD+", "setting": "[2]; metabolite NAD+, S2 Table Metabolomics", "result": 0.008417},
      {"measurement": "NADP+", "setting": "[2]; metabolite NADP+, S2 Table Metabolomics", "result": -0.1427},
      {"measurement": "Octoluse Bisphosphate", "setting": "[2]; metabolite Octoluse Bisphosphate, S2 Table Metabolomics, change in metabolite level after compound treatment", "result": -0.6015},
      {"measurement": "Pyroglutamic acid", "setting": "[2]; metabolite Pyroglutamic acid, S2 Table Metabolomics", "result": 0.2098},
      {"measurement": "UDP-D-glucose", "setting": "[2]; metabolite UDP-D-glucose, S2 Table Metabolomics", "result": -0.0942},
      {"measurement": "UDP-D-glucuronate", "setting": "[2]; metabolite UDP-D-glucuronate, S2 Table Metabolomics", "result": -0.3214},
      {"measurement": "UDP-N-acetyl-glucosamine", "setting": "[2]; metabolite UDP-N-acetyl-glucosamine, S2 Table Metabolomics", "result": -0.03854},
      {"measurement": "UDP", "setting": "[2]; metabolite UDP, S2 Table Metabolomics, change in metabolite level after compound treatment", "result": -0.04555},
      {"measurement": "UMP", "setting": "[2]; metabolite UMP, S2 Table Metabolomics, change in metabolite level after compound treatment", "result": -0.1795},
      {"measurement": "UTP", "setting": "[2]; metabolite UTP, S2 Table Metabolomics, change in metabolite level after compound treatment", "result": -0.2654},
      {"measurement": "a-ketoglutarate", "setting": "[2]; metabolite a-ketoglutarate, S2 Table Metabolomics", "result": -0.6947},
      {"measurement": "citrate/isocitrate", "setting": "[2]; metabolite citrate/isocitrate, S2 Table Metabolomics, change in metabolite level after compound treatment", "result": 0.006162},
      {"measurement": "cytidine", "setting": "[2]; metabolite cytidine, S2 Table Metabolomics", "result": 0.3562},
      {"measurement": "dATP", "setting": "[2]; metabolite dATP, S2 Table Metabolomics", "result": 0.258},
      {"measurement": "dGMP/AMP", "setting": "[2]; metabolite dGMP/AMP, S2 Table Metabolomics, change in metabolite level after compound treatment", "result": 0.2244},
      {"measurement": "fumarate", "setting": "[2]; metabolite fumarate, S2 Table Metabolomics, change in metabolite level after compound treatment", "result": -1.313},
      {"measurement": "glucose-1/6-phosphate", "setting": "[2]; metabolite glucose-1/6-phosphate, S2 Table Metabolomics, change in metabolite level after compound treatment", "result": -0.1461},
      {"measurement": "glycerate", "setting": "[2]; metabolite glycerate, S2 Table Metabolomics, change in metabolite level after compound treatment", "result": -0.1204},
      {"measurement": "guanine", "setting": "[2]; metabolite guanine, S2 Table Metabolomics, change in metabolite level after compound treatment", "result": -0.06557},
      {"measurement": "guanosine", "setting": "[2]; metabolite guanosine, S2 Table Metabolomics, change in metabolite level after compound treatment", "result": -0.1693},
      {"measurement": "hypoxanthine", "setting": "[2]; metabolite hypoxanthine, S2 Table Metabolomics", "result": 0.07201},
      {"measurement": "indole", "setting": "[2]; metabolite indole, S2 Table Metabolomics", "result": -0.04528},
      {"measurement": "inosine", "setting": "[2]; metabolite inosine, S2 Table Metabolomics, change in metabolite level after compound treatment", "result": -0.2118},
      {"measurement": "2_3-Diphosphoglyceric acid", "setting": "[2]; [4]", "result": -0.5043},
      {"measurement": "4-phosphopantothenate", "setting": "[2]; [4]", "result": -0.1061},
      {"measurement": "6-phospho-D-gluconate", "setting": "[2]; [4]", "result": -0.2502},
      {"measurement": "FMN", "setting": "[2]; [4]", "result": -0.1097},
      {"measurement": "IMP", "setting": "[2]; [4]", "result": -0.4258},
      {"measurement": "Pyrophosphate", "setting": "[2]; [4]", "result": -0.3998},
      {"measurement": "Sedoheptoluse bisphosphate", "setting": "[2]; [4]", "result": -0.4722},
      {"measurement": "cyclic-AMP", "setting": "[2]; [4]", "result": -0.5498},
      {"measurement": "glutathione disulfide", "setting": "[2]; [4]", "result": -0.423},
      {"measurement": "lactate", "setting": "[2]; [4]", "result": -0.2201},
      {"measurement": "myo-inositol", "setting": "[2]; [4]", "result": -0.4627},
      {"measurement": "nicotinate", "setting": "[2]; metabolite nicotinate, S2 Table Metabolomics", "result": 0.2145},
      {"measurement": "ornithine", "setting": "[2]; metabolite ornithine, S2 Table Metabolomics", "result": -0.4607},
      {"measurement": "phosphoenolpyruvate", "setting": "[2]; metabolite phosphoenolpyruvate, S2 Table Metabolomics", "result": -0.0532},
      {"measurement": "pyruvate", "setting": "[2]; metabolite pyruvate, S2 Table Metabolomics, change in metabolite level after compound treatment", "result": 0.03561},
      {"measurement": "ribose-phosphate", "setting": "[2]; metabolite ribose-phosphate, S2 Table Metabolomics", "result": -0.5159},
      {"measurement": "sarcosine/alanine", "setting": "[2]; metabolite sarcosine/alanine, S2 Table Metabolomics, change in metabolite level after compound treatment", "result": -1.233},
      {"measurement": "sn-glycerol-3-phosphate", "setting": "[2]; metabolite sn-glycerol-3-phosphate, S2 Table Metabolomics", "result": -0.3535},
      {"measurement": "succinate/methylmalonic acid", "setting": "[2]; metabolite succinate/methylmalonic acid, S2 Table Metabolomics, change in metabolite level after compound treatment", "result": -0.02906},
      {"measurement": "uridine", "setting": "[2]; metabolite uridine, S2 Table Metabolomics, change in metabolite level after compound treatment", "result": -0.4944},
      {"measurement": "xanthosine", "setting": "[2]; metabolite xanthosine, S2 Table Metabolomics, change in metabolite level after compound treatment", "result": -0.9536},
      {"measurement": "EC50", "setting": "[3]", "result": 0.142, "unit": "µM"}
    ]}
  ]
}
